{"source": "patent US11136326B2", "about": "“Pyrrolopyrimidine derivatives as TAM inhibitors” (Incyte Corporation, priority 2015, dated 2021)", "origin": "cited, not measured here", "test_system": "NK cells"}
{"smiles": "CCOc1cn(-c2ccc(F)cc2C)nc1C(=O)Nc1ccc(Oc2ccnc3cc(OC)c(OC)cc23)c(F)c1", "note": "[LDC1267]", "values": [{"measurement": "NK cell activation", "value": "activates NK cells"}]}
